Here are results for two molecules from patent US7592477B2, “Substituted methylene amide derivatives as modulators of protein tyrosine phosphatases (PTPs)” (Laboratoires Serono SA, priority 2002, dated 2009).

The target in one experiment is T1, GLEPP-1 (Homo sapiens, UniProt Q16827).
T1 construct: using the catalytic core of a human recombinant PTP as the enzyme
T1 sequence (Q16827 938-1195 limits assumed): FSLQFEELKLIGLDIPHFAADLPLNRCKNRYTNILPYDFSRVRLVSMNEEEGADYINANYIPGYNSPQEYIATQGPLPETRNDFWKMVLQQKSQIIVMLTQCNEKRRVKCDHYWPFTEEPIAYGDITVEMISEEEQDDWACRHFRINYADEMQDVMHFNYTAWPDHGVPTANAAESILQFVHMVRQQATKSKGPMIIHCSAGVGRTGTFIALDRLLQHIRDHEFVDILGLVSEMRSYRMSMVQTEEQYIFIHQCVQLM
Briefly: PTP Enzyme Assay (DiFMUP), GLEPP-1. It counts as biochemical. The following applies: 30 μM DiFMUP; read-out: IC50 value in respect of GLEPP-1. As for the experimental part: (§1) The PTP Enzyme Assay aims at determining the extent of inhibition of PTPs, e.g. of PTP1B, SHP-1, SHP-2 or GLEPP-1 in the presence of a test compound of formula (I). The inhibition is illustrated by IC50 values which denote the concentration of test compound necessary to achieve an inhibition of 50% of said PTP's using the following concentration of the PTP substrate DiFMUP: • 5 μM DiFMUP for PTP1B; • 20 […] DiFMUP for SHP-1 and SHP-2; • 30 μM DiFMUP for GLEPP-1. a) PTPs Cloning […]
(§2) Assays were performed in a 96 well plate format, using the catalytic core of a human recombinant PTP as the enzyme and 6,8-DiFluoro-4-MethylUmbelliferyl Phosphate (DiFMUP, Molecular Probes, D-6567) as a substrate. […] The reaction ran for 30 minutes at room temperature before reading the fluorescence intensity (integral or intensity) on a Perkin-Elmer Victor 2 spectrofluorimeter (excitation of 6,8-difluoro-7-hydroxy coumarin is at 355 nm, the emission at 460 nm, for 0.1 s). The percentage of inhibition is determined by measuring the relative fluorescence ion absence of a test compound (PTP inhibitor), i.e. with the solvent alone (5% DMSO). The IC50 values for inhibition were determined in triplicates.

A further experiment deals with T2, SHP-1 (Homo sapiens, UniProt P29350).
T2 construct: using the catalytic core of a human recombinant PTP as the enzyme
T2 sequence (P29350 244-515 limits assumed): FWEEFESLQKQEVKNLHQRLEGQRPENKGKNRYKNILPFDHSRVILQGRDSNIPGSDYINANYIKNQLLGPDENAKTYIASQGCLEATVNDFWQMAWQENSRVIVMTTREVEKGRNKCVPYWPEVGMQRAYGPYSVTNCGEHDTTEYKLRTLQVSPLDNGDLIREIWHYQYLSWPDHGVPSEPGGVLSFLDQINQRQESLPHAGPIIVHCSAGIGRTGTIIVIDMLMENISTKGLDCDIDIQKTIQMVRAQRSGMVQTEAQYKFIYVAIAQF
In words: PTP Enzyme Assay (DiFMUP), SHP-1. It counts as biochemical. The following applies: 20 λM DiFMUP; read-out: IC50 value in respect of SHP-1. As for the experimental part:
as §1, §2

Another experiment concerns the target T3, SHP-2 (Homo sapiens, UniProt Q06124).
T3 construct: using the catalytic core of a human recombinant PTP as the enzyme
T3 sequence (Q06124 247-517 limits assumed): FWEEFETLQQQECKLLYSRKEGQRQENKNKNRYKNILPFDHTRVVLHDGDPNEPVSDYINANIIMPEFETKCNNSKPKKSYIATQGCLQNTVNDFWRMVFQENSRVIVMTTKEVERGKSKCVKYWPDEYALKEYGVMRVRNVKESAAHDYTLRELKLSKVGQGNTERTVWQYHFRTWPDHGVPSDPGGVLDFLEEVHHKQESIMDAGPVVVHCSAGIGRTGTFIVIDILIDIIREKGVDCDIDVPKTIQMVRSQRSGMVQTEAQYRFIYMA
In words: PTP Enzyme Assay (DiFMUP), SHP-2. The following applies: 20 λM DiFMUP; read-out: IC50 value in respect of SHP-2. It counts as biochemical. The method, then: as §1, §2

Another experiment deals with T4, PTP1B (Homo sapiens, UniProt P18031).
T4 construct: The cloning and expression of the catalytic domain of PTPIB, may be performed as described in J. Biol. Chem. 2000; made in house
T4 sequence (P18031 3-277 limits assumed): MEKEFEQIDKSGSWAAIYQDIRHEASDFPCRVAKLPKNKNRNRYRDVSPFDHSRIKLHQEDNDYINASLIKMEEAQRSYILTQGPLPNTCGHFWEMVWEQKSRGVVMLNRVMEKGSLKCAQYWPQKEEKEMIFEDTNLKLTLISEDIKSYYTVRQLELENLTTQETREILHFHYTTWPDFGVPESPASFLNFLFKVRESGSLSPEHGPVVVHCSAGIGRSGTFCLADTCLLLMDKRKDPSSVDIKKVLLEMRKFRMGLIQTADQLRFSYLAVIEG
In words: PTP Enzyme Assay (DiFMUP), PTP1B. To be noted: 5 μM DiFMUP; read-out: IC50 value in respect of PTP1B. It counts as biochemical. The method, then: The PTP Enzyme Assay aims at determining the extent of inhibition of PTPs, e.g. of PTP1B, SHP-1, SHP-2 or GLEPP-1 in the presence of a test compound of formula (I). The inhibition is illustrated by IC50 values which denote the concentration of test compound necessary to achieve an inhibition of 50% of said PTP's using the following concentration of the PTP substrate DiFMUP: • 5 μM DiFMUP for PTP1B; • 20 […] DiFMUP for SHP-1 and SHP-2; • 30 μM DiFMUP for GLEPP-1. a) PTPs Cloning
The cloning and expression of the catalytic domain of PTPIB, may be performed as described in J. Biol. Chem. 2000, 275(13), pp 9792-9796. […]
as §2

The test system of another experiment is db/db mice. In words: In vivo assay in db/db mice (postprandial glycemia). The following applies: 4 hrs after drug administration. The method, then: The following assay aims at determining the anti-diabetic effect of the test compounds of formula (I) in a model of postprandial glycemia in db/db mice, in vivo.
A total of 24 db/db mice (about 8-9 weeks; obtained from IFFACREDO, l'Arbreste, France) were fasted during 20 hours.
4 groups, each consisting of 6 animals were formed:
Group 1: The animals were administered (per os) a dose of […] of vehicle.
Group 2: The animals were administered (per os) a dose of 20 mg/kg of the test compound according to formula (I).
Group 3: The animals were administered (per os) a dose of 100 mg/kg of the test compound according to formula (I).
Group 4: The animals were administered (per os) a dose of 200 mg/kg of the test compound according to formula (I).
After oral administration of the compounds of formula (I) solubilized or suspended in CarboxyMethylCellulose (0.5%), Tween 20 (0.25%) and water as vehicle, the animals had access to commercial food (D04, UAR, Villemoisson/Orge, France) ad libitum. The diabetic state of the mice was verified by determining the blood glucose level before drug administration. Blood glucose and serum insulin levels were then determined 4 hrs after drug administration.
The determination of the blood glucose level was performed using a glucometer (Precision Q.I.D., Medisense, Abbot, ref. 212.62.31).
The determination of the Insulin level was performed using an ELISA kit (Crystal CHEM, Ref. INSK R020).
Changes in blood glucose and serum insulin of drug treated mice were expressed as a percentage of control (group 1: vehicle treated mice).

Setting [1] is: Group 2: db/db mice, per os 20 mg/kg.
[2] abbreviates: Group 3: db/db mice, per os 100 mg/kg.
Where [3] appears, read: Group 4: db/db mice, per os 200 mg/kg.

One may read the IC50 as the concentration needed to halve the response being measured. For `CCCCCCCCCCCCCCCNC(=O)c1ccc(CN(Cc2ccc(C(F)(F)F)cc2)C(=O)C(=O)O)cc1` [Example 4, oxo{{4-[(pentadecylamino)carbonyl]benzyl}[4-(trifluoromethyl)benzyl]amino}acetic acid], the IC50 on GLEPP-1 was 500 nM; on SHP-1, 1000 nM; on SHP-2, 1400 nM.
Take `CCCCCCCCCCCCNC(=O)c1ccc(CN(Cc2ccc(C(F)(F)F)cc2)C(=O)C(=O)O)cc1` [Example 10, {{4-[(dodecylamino)carbonyl]benzyl}[4-(trifluoromethyl)benzyl]amino}(oxo)acetic acid]: the IC50 at PTP1B was 2220 nM; on GLEPP-1 it was 1400 nM; at SHP-1, 2400 nM; on SHP-2, 2700 nM. In addition, the results for the “Decrease in blood glucose” value in the experiment with db/db mice (setting [1]), in the experiment with db/db mice (setting [2]) and in the experiment on db/db mice (setting [3]) were 17 percentage of control, 42 percentage of control and 48 percentage of control, respectively. Also, the “Decrease in serum insulin” value in the experiment on db/db mice (setting [1]) is given as −2 percentage of control; in the experiment on db/db mice (setting [2]) it was 66 percentage of control; in the experiment on db/db mice (setting [3]) it was 89 percentage of control.
